Laboratory results taken from patent US20220170859A1, “PARTICLE LABELING REAGENT, PARTICLE DYEING METHOD, AND MICROSCOPIC SYSTEM” (SONY GROUP CORPORATION, priority 2019, published 2022).

Test system: Jurkat cells
Details: Jurkat cells dyed with 50 μM reagent in PBS; UV 365 nm 10 minutes vs no UV
Procedure: 1 mL of Jurkat cells 3.0×10^6 cells/PBS (−), the Jurkat cells being human leukemia T cell lines, was prepared in a 1.5 mL Eppendorf tube, and centrifuged at 200×g for five minutes. The supernatant was removed, and 1 mL of a 50 μM MeNPOC-biotin-sulfo-NHS ester.Na/PBS solution was added thereto. The mixture was shielded from light by an aluminum foil, and allowed to stand at room temperature for 20 minutes. The mixture was centrifuged at 200×g for five minutes, and the supernatant was removed. The residue was resuspended in 1 mL of PBS (−) and centrifuged again at 200×g for five minutes, and the supernatant was removed. PBS (−) was added thereto, and the cell concentration was measured with a cell counter, and then the concentration was adjusted to 1.5×10^5 cells/mL. The cells were added dropwise at 0.1 mL/well to a COC film bottom 96 well plate that had been soaked with 1% BSA overnight, and centrifuged at 120×g for one minute to precipitate the cells on a well bottom surface. Subsequently, the sample was irradiated with UV light from the well bottom surface side for 10 minutes using a UV-LED (LED 365-SPT, Optocode, λp=365 nm, about 17 mW/cm^2). As a comparison, a sample not irradiated with UV light was allowed to stand for 10 minutes. The cell suspension was collected from the wells, and PBS was added thereto to adjust the volume to 0.8 mL. […]

MeNPOC-biotin-sulfo-NHS ester sodium salt
fluorescence intensity (adsorption of Alexa Fluor 488 labeled streptavidin): fluorescence intensity changed depending on presence or absence of UV irradiation
